Where a name gives a salt, the structure may show the parent alone.
Key:
Format in all cases: cell-based
adenosine 2a receptor = adenosine 2a receptor (Homo sapiens, UniProt P29274); assay: Agonist activity against adenosine 2a receptor (CHO cells, cAMP/SPAP reporter); settings: CHO cells transfected with human receptor; basal cAMP via SPAP; mean of all the versions tested
Procedure: (§1) (1) Agonist activity against adenosine 2a, adenosine 1 and adenosine 3 receptor subtypes.
(§2) The effect of test compounds was determined by their effects on basal levels of cAMP (A2a) or on forskolin-enhanced cAMP (A1 and A3) as reflected by changes in levels of SPAP.

adenosine 3 receptor = biological target: T1, adenosine 3 receptor (Homo sapiens, UniProt P0DMS8); assay: Agonist activity against adenosine 3 receptor (CHO cells, forskolin-enhanced cAMP/SPAP reporter); settings: CHO cells transfected with human receptor; forskolin-enhanced cAMP via SPAP; mean of all the versions tested
T1 sequence (P0DMS8 1-318): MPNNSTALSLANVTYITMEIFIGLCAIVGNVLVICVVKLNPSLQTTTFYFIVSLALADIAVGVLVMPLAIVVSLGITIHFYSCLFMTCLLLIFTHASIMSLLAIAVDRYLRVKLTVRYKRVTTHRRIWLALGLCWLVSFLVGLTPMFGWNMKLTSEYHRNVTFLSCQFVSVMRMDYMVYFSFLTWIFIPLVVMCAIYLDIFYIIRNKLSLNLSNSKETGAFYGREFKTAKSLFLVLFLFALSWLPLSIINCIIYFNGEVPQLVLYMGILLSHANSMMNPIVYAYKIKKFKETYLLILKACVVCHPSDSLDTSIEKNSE
Procedure: as §1, §2

adenosine 1 receptor = biological target: T2, adenosine 1 receptor (Homo sapiens, UniProt P30542); assay: Agonist activity against adenosine 1 receptor (CHO cells, forskolin-enhanced cAMP/SPAP reporter); settings: CHO cells transfected with human receptor; forskolin-enhanced cAMP via SPAP; mean of all the versions tested
T2 sequence (P30542 1-326): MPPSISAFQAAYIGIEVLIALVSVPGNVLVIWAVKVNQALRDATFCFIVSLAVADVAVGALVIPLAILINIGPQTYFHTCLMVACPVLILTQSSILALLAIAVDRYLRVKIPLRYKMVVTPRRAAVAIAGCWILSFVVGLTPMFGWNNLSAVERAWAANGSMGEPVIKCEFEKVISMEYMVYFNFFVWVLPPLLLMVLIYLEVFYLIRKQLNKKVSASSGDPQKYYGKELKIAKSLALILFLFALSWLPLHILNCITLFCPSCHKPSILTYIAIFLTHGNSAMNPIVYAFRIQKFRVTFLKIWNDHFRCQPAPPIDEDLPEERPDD
Procedure: as §1, §2

Chain of adenosine 2a receptor (P29274 whole entry): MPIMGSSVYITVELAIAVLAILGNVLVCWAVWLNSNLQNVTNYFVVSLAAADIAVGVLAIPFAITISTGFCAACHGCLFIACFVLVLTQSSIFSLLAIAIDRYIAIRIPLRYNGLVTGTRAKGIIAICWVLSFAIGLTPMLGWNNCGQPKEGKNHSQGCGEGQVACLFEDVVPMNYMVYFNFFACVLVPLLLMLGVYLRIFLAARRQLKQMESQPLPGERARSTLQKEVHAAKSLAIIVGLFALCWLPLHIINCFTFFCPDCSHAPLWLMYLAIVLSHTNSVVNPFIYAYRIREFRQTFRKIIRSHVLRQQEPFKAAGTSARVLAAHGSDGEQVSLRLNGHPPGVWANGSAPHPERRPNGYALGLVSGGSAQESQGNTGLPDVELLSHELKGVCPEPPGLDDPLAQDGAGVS

Row | SMILES | A2a EC50 as a ratio of that of NECA (adenosine 2a receptor) | A3 EC50 as a ratio of that of NECA (adenosine 3 receptor) | A1 EC50 as a ratio of that of NECA (adenosine 1 receptor)
1 | Cn1nnc([C@H]2O[C@@H](n3cnc4c(NCC(c5ccccc5)c5ccccc5)nc(N[C@@H]5CCC[C@H]5O)nc43)[C@H](O)[C@@H]2O)n1.O=CO [Example 96, (2R,3R,4S,5R)-2-[6-(2,2-Diphenyl-ethylamino)-2-(2R-hydroxy-(R)-cyclopentylamino)-purin-9-yl]-5-(2-methyl-2H-tetrazol-5-yl)-tetrahydro-furan-3,4-diol Formate] | 2.14 | >153 | 5177.00
2 | CCn1nnc([C@H]2O[C@@H](n3cnc4c(N)nc(Nc5ccc(F)cc5)nc43)[C@H](O)[C@@H]2O)n1.O=C(O)C(F)(F)F [Example 13, (2R,3R,4S,5R)-2-[6-Amino-2-(4-fluoro-phenylamino)-purin-9-yl]-5-(2-ethyl-2H-tetrazol-5-yl)-tetrahydro-furan-3,4-diol Trifluoroacetate] | 0.64 | >232 | 266.9
3 | CCn1nnc(C2OC(n3cnc4c(NCc5cccc(I)c5)nc(NC5CCN(Cc6ccccc6)C5)nc43)C(O)C2O)n1.O=CO.O=CO [Example 77, (2R,3R,4S,5R)-2-[2-(1-Benzyl-pyrrolidin-3-ylamino)-6-(3-iodo-benzylamino)-purin-9-yl]-5-(2-ethyl-2H-tetrazol-5-yl)-tetrahydro-furan-3,4-diol bis(Formate)] | 3.30 | >200 | 101.30
4 | CCn1nnc(C2OC(n3cnc4c(NCc5cccc(I)c5)nc(NC5CCC(N)CC5)nc43)C(O)C2O)n1.O=CO.O=CO [Example 100, (2R,3R,4S,5R)-2-[2-(trans-4-Amino-cyclohexylamino)-6-(3-iodo-benzylamino)-purin-9-yl]-5-(2-ethyl-2H-tetrazol-5-yl)-tetrahydro-furan-3,4-diol Diformate] | 5.71 | >127 | 292.70
5 | CCn1nnc([C@H]2O[C@@H](n3cnc4c(N)nc(N[C@H]5CC[C@H](N)CC5)nc43)[C@H](O)[C@@H]2O)n1 [Example 53, (2R,3R,4S,5R)-2-[6-Amino-2-(trans-4-amino-cyclohexylamino)-purin-9-yl]-5-(2-ethyl-2H-tetrazol-5-yl)-tetrahydro-furan-3,4-diol] | 4.14 | >960 | 298.30
6 | CC(C)n1nnc([C@H]2O[C@@H](n3cnc4c(N[C@H](CO)Cc5ccccc5)nc(N[C@H]5CCNC5)nc43)[C@H](O)[C@@H]2O)n1.O=CO.O=CO [Example 64, (2R,3R,4S,5R)-2-[6-(1S-Hydroxymethyl-2-phenyl-ethylamino)-2-(pyrrolidin-3S-ylamino)-purin-9-yl]-5-(2-isopropyl-2H-tetrazol-5-yl)-tetrahydro-furan-3,4-diol bis(Formate)] | 2.54 | >326 | 21.30
7 | CCC(CC)Nc1nc(NCCN2CCOCC2)nc2c1ncn2C1OC(c2nnn(C(C)C)n2)C(O)C1O.O=CO.O=CO [Example 70, (2R,3R,4S,5R)-2-[6-(1-Ethyl-propylamino)-2-(2-morpholin-4-yl-ethylamino)-purin-9-yl]-5-(2-isopropyl-2H-tetrazol-5-yl)-tetrahydro-furan-3,4-diol Diformate] | 7.24 | >405 | 30.55
8 | CCn1nnc([C@H]2O[C@@H](n3cnc4c(NCC(c5ccccc5)c5ccccc5)nc(NCCN5CCCC5)nc43)[C@H](O)[C@@H]2O)n1.O=C(O)C(F)(F)F.O=C(O)C(F)(F)F.O=C(O)C(F)(F)F [Example 43, (2R,3R,4S,5R)-2-[6-(2,2-Diphenyl-ethylamino)-2-(2-pyrrolidin-1-yl-ethylamino)-purin-9-yl]-5-(2-ethyl-2H-tetrazol-5-yl)-tetrahydro-furan-3,4-diol tris(Trifluoroacetate)] | 2.23 | >546 | 71.35
9 | CCn1nnc(C2OC(n3cnc4c(NCCc5ccccc5)nc(NC5CCN(Cc6ccccc6)C5)nc43)C(O)C2O)n1.O=CO.O=CO [Example 75, (2R,3R,4S,5R)-2-[2-(1-Benzyl-pyrrolidin-3-ylamino)-6-phenethylamino-purin-9-yl]-5-(2-ethyl-2H-tetrazol-5-yl)-tetrahydro-furan-3,4-diol bis(Formate)] | 1.40 | >174 | 121.50
10 | CCn1nnc([C@H]2O[C@@H](n3cnc4c(NCC(c5ccccc5)c5ccccc5)nc(NC5CCNC5)nc43)[C@H](O)[C@@H]2O)n1.O=C(O)C(F)(F)F.O=C(O)C(F)(F)F.O=C(O)C(F)(F)F (stereo partly drawn) [Example 2, (2R,3R,4S,5R)-2-[6-(2,2-Diphenyl-ethylamino)-2-(pyrrolidin-3-ylamino)-purin-9-yl]-5-(2-ethyl-2H-tetrazol-5-yl)-tetrahydro-furan-3,4-diol tris(Trifluoroacetate)] | 0.92 | >216 | 123.6
11 | CC(C)n1nnc(C2OC(n3cnc4c(NC5CCCC5)nc(NCCN5CCCC5)nc43)C(O)C2O)n1.O=CO.O=CO [Example 81, (2R,3R,4S,5R)-2-[6-Cyclopentylamino-2-(2-pyrrolidin-1-yl-ethylamino)-purin-9-yl]-5-(2-isopropyl-2H-tetrazol-5-yl)-tetrahydro-furan-3,4-diol Diformate] | 4.77 | >156 | 89.11
12 | Cn1cnc(CCNc2nc(NC(CO)Cc3ccccc3)c3ncn(C4OC(c5nnn(C)n5)C(O)C4O)c3n2)c1 [Example 32, (2R,3R,4S,5R)-2-{6-(1S-Hydroxymethyl-2-phenyl-ethylamino)-2-[2-(1-methyl-1H-imidazol-4-yl)-ethylamino]-purin-9-yl}-5-(2-methyl-2H-tetrazol-5-yl)-tetrahydro-furan-3,4-diol Formate] | 0.026 | >100 | 56.2
13 | Cn1cnc(CCNc2nc(NCCC(C)(C)C)c3ncn([C@@H]4O[C@H](c5nnn(C)n5)[C@@H](O)[C@H]4O)c3n2)c1.O=CO [Example 28, (2R,3R,4S,5R)-2-{6-(3,3-Dimethyl-butylamino)-2-[2-(1-methyl-1H-imidazol-4-yl)-ethylamino]-purin-9-yl}-5-(2-methyl-2H-tetrazol-5-yl)-tetrahydro-furan-3,4-diol Formate] | 0.36 | >151 | >=1250
14 | CCC(CC)Nc1nc(NCCc2cn(C)cn2)nc2c1ncn2[C@@H]1O[C@H](c2nnn(C)n2)[C@@H](O)[C@H]1O.O=CO [Example 33, (2R,3R,4S,5R)-2-{6-(1-Ethyl-propylamino)-2-[2-(1-methyl-1H-imidazol-4-yl)-ethylamino]-purin-9-yl}-5-(2-methyl-2H-tetrazol-5-yl)-tetrahydro-furan-3,4-diol Formate] | 0.16 | >172 | >4045
15 | Cn1nnc(C2OC(n3cnc4c(NC(CO)Cc5ccccc5)nc(NCCN5CCCC5)nc43)C(O)C2O)n1 [Example 111, (2R,3R,4S,5R)-2-[6-(1S-Hydroxymethyl-2-phenyl-ethylamino)-2-(2-pyrrolidin-1-yl-ethylamino)-purin-9-yl]-5-(2-methyl-2H-tetrazol-5-yl)-tetrahydro-furan-3,4-diol bis(Formate)] | 2.92 | >315 | 298.50
16 | CCn1nnc([C@H]2O[C@@H](n3cnc4c(NCC(c5ccccc5)c5ccccc5)nc(N[C@H]5CC[C@H](N)CC5)nc43)[C@H](O)[C@@H]2O)n1 (relative stereo) [Example 1, rel-(2R,3R,4S,5R)-2-[2-(trans-4-Amino-cyclohexylamino)-6-(2,2-diphenylethylamino)-purin-9-yl]-5-(2-ethyl-2H-tetrazol-5-yl)-tetrahydro-furan-3,4-diol] | 0.53 | >549 | 89.3

Reference: US6528494B2 (priority 1996, dated 2003)
